Reference: patent publication US20250179519A1, “PROCESS TO ENHANCE VIRAL VECTOR PRODUCTION IN CELL-CULTURE USING GLYCYL-GLUTAMINE” (Evonik Operations GmbH, priority 2022, published 2025)
Peptide text beside a SMILES is read from it.

Key:
HEK Expi293F cells = assay: Transfection efficiency via GFP expression by flow cytometry; format: cell-based; settings: for transfection efficiency: 96 h post transfection, 8 mM supplement
Description: (§1) A lab study to evaluate the influence of glutamine-dipeptides on viral vector production (AAV8) was conducted. HEK293 cells (HEK Expi293F cells, Thermo Fisher Scientific) were pre-cultured in shake flasks in a commercial culture medium recommended for viral vector production (Freestyle F17 Expression medium, Gibco, Thermo Fisher Scientific). After thawing the cells in 20 ml of the respective media variant (final concentration of glutamine or glutamine dipeptide in media variants was 8 mM) in 125 mL shake flasks, they were cultivated for five passages at 37° C. (185 rpm/50 mm orbit, 5% CO2) following a passaging rhythm of 3-4 days. For production, cells were split into three replicates each with a seeding viable cell density of 2×10^6 cells/mL (day 0) in 22 mL of the respective media variant. They were transfected with polyethylenimine (PEI MAX, Polysciences) with a 2-plasmid system for AAV8 (Plasmid Factory) featuring green fluorescent protein (GFP) as gene of interest 24 hours after inoculation (day 1). Again, media variants were supplemented by glutamine (Gln), alanyl-glutamine (Ala-Gln, via the liquid supplement, GlutaMAX™, Gibco, Thermo Fisher Scientific) or glycyl-glutamine hydrate (Gly-Gln, cQrex® GQ, Evonik Operations) to a final concentration glutamine or glutamine dipeptide of 8 mM (each n=3).
(§2) To analyze cell culture performance in the different media supplementations viable cell density and viability were determined via automated cell counter. Ammonium (fluorometric approach) as well as glucose and lactate concentration (enzymatic-amperometric method) were determined during preculture and AAV8 production phase on samples from one shake flask per supplement. Transfection efficiency was determined via GFP expression by flow cytometry 48, 72 and 96 h post-transfection. For AAV8 titer determination, samples of all replicates (supernatants only) were taken 96 and 120 h post-transfection and analyzed via qPCR (genomic titer) and ELISA (capsid titer).

[1] = system: AAV8 production in HEK Expi293F cells; assay: Genomic AAV8 titer from supernatant by qPCR; format: cell-based; settings: 8 mM supplement; for genomic AAV8 titer: supernatant
Description: as §1, §2

[2] = system: AAV8 production in HEK Expi293F cells; assay: AAV8 capsid titer from supernatant by ELISA; format: cell-based; settings: 96 h and 120 h post transfection
Description: A lab study to evaluate the influence of glutamine-dipeptides on viral vector production (AAV8) was conducted. HEK293 cells (HEK Expi293F cells, Thermo Fisher Scientific) were pre-cultured in shake flasks in a commercial culture medium recommended for viral vector production (Freestyle F17 Expression medium, Gibco, Thermo Fisher Scientific). After thawing the cells in 20 ml of the respective media variant (final concentration of glutamine or glutamine dipeptide in media variants was 8 mM) in 125 mL shake flasks, they were cultivated for five passages at 37° C. (185 rpm/50 mm orbit, 5% CO2) following a passaging rhythm of 3-4 days. […]
as §2

[3] = compared with glutamine; cited from earlier work
mouse hybridoma (CC9C10) = settings: CC9C10 culture; Gly-Gln 20 mM, Ala-Gln 6 mM; cited from earlier work
[4] = system: AAV8 production in HEK Expi293F cells; assay: Full/empty ratio (genomic titer vs. capsid titer); format: cell-based; settings: from mean values
Description: In a preferred embodiment, the “full/empty ratio” shall be defined as viral genome titer (vg) divided by viral particle titer (vp). A suitable method to determine vg is quantitative polymerase chain reaction (qPCR). A suitable method to measure vp titer including intact virions and empty capsids is serotype-specific enzyme-linked immunosorbent assay (ELISA).
as §2
The full/empty ratio (ratio genomic titer in vg/mL vs. capsid titer in vp/mL) was calculated using the mean values for both sampling points (FIG. 11). The full/empty ratio varied between 14-22% for the 96 h post transfection time point and between 13-21% for the 120 h post transfection time point. […]

[5] = at 20° C. in water; cited from earlier work

Structure (SMILES) | transfection efficiency (HEK Expi293F cells) [%] | genomic titer, comparison between supplements [1] | capsid titer compared to cultures supplemented with Gln [2] | stability during autoclaving and storage [3] | cell yields (mouse hybridoma (CC9C10)) | monoclonal antibody production (mouse hybridoma (CC9C10)) | transfection efficiency, comparison between supplements (HEK Expi293F cells; Gln vs Ala-Gln vs Gly-Gln, 8 mM) | relative fluorescence, comparison between supplements (HEK Expi293F cells; all sampling points (48, 72, 96 h)) | genomic AAV8 titer ([1]; 96 h post transfection) | genomic AAV8 titer ([1]; 120 h post transfection) | full/empty ratio ([4]; 96 h post transfection) [%] | full/empty ratio ([4]; 120 h post transfection) [%] | solubility [5] [g/L]
C[C@H](N)C(=O)N[C@@H](CCC(N)=O)C(=O)O [Ala-Gln, alanyl-glutamine, reference compound] (H-Ala-Gln-OH) | 98 | comparable to the other processes | higher capsid titers | comparably stable | high cell yields | comparable | – | – | – | – | – | – | –
NC(=O)CC[C@H](N)C(=O)O [Gln, L-glutamine] | 98 | – | – | – | – | comparable | – | – | – | – | – | – | –
NCC(=O)N[C@@H](CCC(N)=O)C(=O)O.O [Gly-Gln, Glycyl-L-Glutamine hydrate] (H-Gly-Gln-OH) | 98 | – | higher capsid titers | comparably stable | high cell yields | comparable | highest transfection efficiency | highest relative fluorescence | 7.3×10^10 vg/mL | 8.2×10^10 vg/mL | 22 | 21 | 154
